Where “and” joins values, the source holds several entries; their conditions need not be identical. Equal entries are not always repeated.
Legend:
[1] = target: T1, GST-tagged human α2 kinase domain (Homo sapiens, UniProt P54646); test: Inhibition of GST:α2-kinase domain fusion by AMP or ADP; assay type: biochemical; settings: for Activation / IC50: α2 kinase domain
T1 construct: Human GST-tagged α2 kinase domain (1–310); made in house
From the text: To confirm that the inhibition of kinase activity by ADP at high concentrations was due to competition with ATP at the catalytic site on the α subunit, we repeated the assays using a glutathione-S-transferase- (GST-) tagged human α2 kinase domain that had been phosphorylated by LKB1. […] These IC50 values were similar to those obtained with the intact heterotrimers from rat liver (Supplementary Table S1).
Figure 3. Inhibition of GST:α2-kinase domain fusion by AMP or ADP. The kinase domain (phosphorylated on Thr172 by the LKB1:STRADα:MO25α complex) was incubated with various concentrations of AMP or ADP as in Figure 1 using [ATP] at 0.2 (A), 1.0 (B) or 5.0 mM (C) and keeping [Mg^2+] in a constant excess of 4.8 mM above [ATP] [19]. Results (mean ± SD, n = 2) were fitted to the equation: Y = Basal-(Basal × X)/(IC50 + X) where Y is the kinase activity, X is the concentration of AMP or ADP, and IC50 is the concentration of AMP or ADP causing half-maximal inhibition. Dashed vertical lines show the estimates of IC50 values, and best-fit values of all parameters used to generate the curves are listed in Supplementary Table S1.
Sources of antibodies were as described: pThr172 (AMPK-α: Cell Signaling Technologies, Danvers, MA, U.S.A., Cat# 2535), AMPK-α2 [22]. Rat liver AMPK was purified as described previously. Plasmid encoding human (His)6-tagged AMPK (α2β2γ1, bacterially expressed) generated as in [23], was a gift from AstraZeneca, Cambridge, U.K. The L129D/V130D (CBS1), V276G/L277G (CBS3) and I312G (CBS4) mutations in the α2β2γ1 complex were generated using the Quikchange II site-directed mutagenesis kit (Agilent Technologies) and confirmed by DNA sequencing. Human GST-tagged α2 kinase domain (1–310), LKB1:STRAD-α:MO25-α complexes, GST-tagged CaMKK2 [26], and PPM1A (PP2Cα) were produced as described. Bacterially expressed heterotrimers were activated by phosphorylation of Thr172 by GST-tagged CaMKK2 in the presence of ATP, and CaMKK2 was subsequently removed by passage through glutathione-Sepharose. Human GST-tagged α2 kinase domain was activated in a similar manner except that human (His)6-tagged LKB1:STRAD-α:MO25-α complex was used and removed after activation via passage through a His-Trap column. Recombinant human 5′-nucleotidase, CD73, Cat # 5795-EN-01, was from R&D systems (Minneapolis, MN, U.S.A.).
AMPK assays measured the transfer of radioactivity from [γ-^33P]ATP to a peptide substrate, which was separated from unreacted ATP by binding to P81 paper. This assay was described previously except that we used [γ-^33P] rather than [γ-^32P]ATP. In some assays (specified in Figure legends) the concentration of ATP was increased from 0.2 to 1 or 5 mM ATP, with MgCl2 concentrations maintained at a constant 4.8 mM excess above the concentration of ATP [19]. Where allosteric activation by AMP or ADP was being studied, we used the SAMS peptide as substrate. For all other assays the AMARA peptide was used.

[2] = target: T2, human α2β2γ1 complex, CBS3 mutant (V276G/L277G) (Homo sapiens, UniProt P54619+P54646, L277G/V276G); test: AMPK inactivation and Thr172 dephosphorylation by PPM1A, CBS3 mutant; assay type: biochemical; settings: 300 µM nucleotide, absence of ATP
T2 construct: made in house; host or cells: Escherichia coli
T2 sequence (P54619 whole entry V276G/L277G): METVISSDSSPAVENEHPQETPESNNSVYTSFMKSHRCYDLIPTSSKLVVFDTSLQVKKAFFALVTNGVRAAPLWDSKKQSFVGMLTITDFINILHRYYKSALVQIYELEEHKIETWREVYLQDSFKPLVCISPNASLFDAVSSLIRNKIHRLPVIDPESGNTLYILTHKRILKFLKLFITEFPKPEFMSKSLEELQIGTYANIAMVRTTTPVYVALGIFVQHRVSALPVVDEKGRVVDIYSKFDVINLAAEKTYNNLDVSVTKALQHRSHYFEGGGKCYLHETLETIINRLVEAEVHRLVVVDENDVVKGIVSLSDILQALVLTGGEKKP
T2 sequence (P54646 whole entry): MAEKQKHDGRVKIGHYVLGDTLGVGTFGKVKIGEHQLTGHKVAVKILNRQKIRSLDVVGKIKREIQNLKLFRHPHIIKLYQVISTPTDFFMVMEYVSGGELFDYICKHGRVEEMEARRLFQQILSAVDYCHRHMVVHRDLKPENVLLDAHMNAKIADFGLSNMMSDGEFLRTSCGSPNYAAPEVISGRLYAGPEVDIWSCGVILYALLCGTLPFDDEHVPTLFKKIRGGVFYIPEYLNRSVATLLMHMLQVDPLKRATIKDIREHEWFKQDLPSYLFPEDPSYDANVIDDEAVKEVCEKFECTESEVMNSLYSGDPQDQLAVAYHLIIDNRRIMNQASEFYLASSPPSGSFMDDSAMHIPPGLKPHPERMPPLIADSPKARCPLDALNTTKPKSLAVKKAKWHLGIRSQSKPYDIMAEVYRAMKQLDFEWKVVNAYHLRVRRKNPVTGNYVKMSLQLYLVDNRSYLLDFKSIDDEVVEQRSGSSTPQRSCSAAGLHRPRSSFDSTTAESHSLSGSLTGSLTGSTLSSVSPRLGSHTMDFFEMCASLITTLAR
T2 sequence (O43741 whole entry partner): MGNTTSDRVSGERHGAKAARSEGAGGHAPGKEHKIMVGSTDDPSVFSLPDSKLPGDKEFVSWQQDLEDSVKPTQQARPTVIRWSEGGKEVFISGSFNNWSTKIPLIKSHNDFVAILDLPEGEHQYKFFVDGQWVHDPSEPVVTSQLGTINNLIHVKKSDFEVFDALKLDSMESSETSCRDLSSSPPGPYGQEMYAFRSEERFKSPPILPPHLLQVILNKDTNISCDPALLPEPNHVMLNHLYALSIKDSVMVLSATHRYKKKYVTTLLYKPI
Procedure: The relative roles of the three CBS sites in the other two mechanisms of activation of AMPK by AMP or ADP, i.e. promotion of Thr172 phosphorylation by LKB1, and protection against Thr172 dephosphorylation by protein phosphatases, have not been examined previously. As expected, incubation of the α2β2γ1 AMPK complex with a fixed, limiting amount of purified LKB1:STRADα:MO25α complex in the presence of 200 µM Mg.ATP^2− caused a large degree of activation (Figure 5A) and phosphorylation (Figure 5B) of AMPK (unphosphorylated α2β2γ1 complex), which were stimulated more than 2-fold by 300 µM AMP and 1.6-fold by 300 µM ADP.
Figure 6. Effects of AMP or ADP on AMPK inactivation and Thr172 dephosphorylation by PP2Cα (PPM1A). Human α2β2γ1 complexes (WT, or with L129D/V130D, V276G/L277G or I312G mutations affecting CBS1, CBS3 or CBS4 respectively), all phosphorylated on Thr172, were incubated with a fixed concentration of PP2Cα (PPM1A) in the presence or absence of AMP or ADP (both 300 µM) as described in the Materials and methods section. After the incubation, aliquots were withdrawn for (A) AMPK assay or (B) Western blots. […] For (B), due to a limit on the number of lanes that could be run on one gel, single replicates from the triplicate assays were analysed. […]

T1 sequence (P54646 1-310): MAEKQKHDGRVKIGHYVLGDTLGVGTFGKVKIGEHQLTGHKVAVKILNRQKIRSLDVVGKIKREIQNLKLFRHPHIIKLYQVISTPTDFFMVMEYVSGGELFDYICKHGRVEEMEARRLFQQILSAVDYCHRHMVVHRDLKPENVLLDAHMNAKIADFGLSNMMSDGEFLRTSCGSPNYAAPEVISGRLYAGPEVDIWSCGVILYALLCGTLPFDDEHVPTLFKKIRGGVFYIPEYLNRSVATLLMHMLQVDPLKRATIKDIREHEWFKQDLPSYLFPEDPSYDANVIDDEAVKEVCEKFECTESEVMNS

Row | SMILES | Activation ([1]; 0.2 mM ATP) | IC50 ([1]; 0.2 mM ATP) | Activation ([1]; 1.0 mM ATP) | IC50 ([1]; 1.0 mM ATP) | Activation ([1]; 5.0 mM ATP) | IC50 ([1]; 5.0 mM ATP) | protective effect of nucleotide against PPM1A in the mutant [2] | IC50 of AMP relative to IC50 of ADP ([1]; GST-α2 kinase domain, 0.2 to 5 mM ATP)
1 | Nc1ncnc2c1ncn2[C@@H]1O[C@H](COP(=O)(O)OP(=O)(O)O)[C@@H](O)[C@H]1O [ADP] | none | 0.67 mM | none | 1.6 mM | none | 3.5 mM | almost completely abolished | –
2 | Nc1ncnc2c1ncn2[C@@H]1O[C@H](COP(=O)(O)O)[C@@H](O)[C@H]1O [AMP] | none | 2.2 mM | none | 5.4 mM | none | 13 mM and 13.4 mM | almost completely abolished | ~3 fold

— article PMC11088877, “AMP-activated protein kinase can be allosterically activated by ADP but AMP remains the key activating ligand” (Biochemical Journal, 2024)
